This data set can be described thus: first-order primary biodegradation rate constant k (sorption-corrected, fDis-corrected) (d-1); higher = faster biodegradation. The protocol: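 Modified OECD 309 water-sediment test. River water plus sieved sediment (50 g wet solid/L) from European river segments (DE, CH, ES, EL) was spiked with a mixture of 129 compounds at 1 ug/L each and incubated in the dark at river temperature for 10 days. The water phase was analysed by UHPLC-Orbitrap-MS. The first-order primary biodegradation rate constant k (d-1) is k_observed, corrected for dissipation in sterile sorption controls and divided by the dissolved fraction fDis; it was fitted over 3 replicate incubations. Invalid fits (p > 0.05, n < 5, not available, concentration increase) are excluded.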

[1] abbreviates: river segment: Germany (DE) T_Contam, incubation temperature 24 °C.
[2] abbreviates: river segment: Germany (DE) T_Pris, incubation temperature 24 °C.
Setting [3] is: river segment: Greece (EL) G_Contam, incubation temperature 19 °C.
Where [4] appears, read: river segment: Greece (EL) G_Pris, incubation temperature 19 °C.
The mark [5] stands for this setting: river segment: Greece (EL) L_Contam, incubation temperature 19 °C.
The mark [6] stands for this setting: river segment: Switzerland (CH) U_Contam, incubation temperature 17 °C.
[7] abbreviates: river segment: Germany (DE) H_Contam, incubation temperature 24 °C.
Where [8] appears, read: river segment: Greece (EL) A_Contam, incubation temperature 19 °C.
[9] abbreviates: river segment: Spain (ES) B_Contam, incubation temperature 24 °C.
Setting [10] is: river segment: Spain (ES) L_Contam, incubation temperature 24 °C.
Where [11] appears, read: river segment: Switzerland (CH) U_Pris, incubation temperature 17 °C.
Where [12] appears, read: river segment: Spain (ES) C_Contam, incubation temperature 24 °C.
The mark [13] stands for this setting: river segment: Switzerland (CH) C_Contam, incubation temperature 17 °C.
Setting [14] is: river segment: Switzerland (CH) R_Contam, incubation temperature 17 °C.
Setting [15] is: river segment: Spain (ES) F_Pris_Salt, incubation temperature 24 °C.

Each structure is given as a SMILES string.

Regarding `CC(C)(C#N)c1cc(Cn2cncn2)cc(C(C)(C)C#N)c1` [Anastrozole], the “first-order primary biodegradation rate constant k” value reads like this: under setting [1], 0.0241; under setting [2], 0.0157; under setting [3], 0.658; under setting [4], 0.133; under setting [5], 0.113; under setting [6], 0.00582.

As for `Cc1ccc(NC(=O)N(C)C)cc1Cl` [Chlortoluron], the “first-order primary biodegradation rate constant k” value is, setting by setting: under setting [7], 0.0585; under setting [1], 0.156; under setting [2], 0.00289; under setting [8], 0.306; under setting [3], 0.0396; under setting [4], 0.423. Besides, the “first-order primary biodegradation rate constant k” value runs as follows: under setting [5], 0.139; under setting [9], 0.0189; under setting [10], 0.114; under setting [6], 0.0378; under setting [11], 0.0569.

In the case of `CC(=O)NC[C@H]1CN(c2ccc(N3CCOCC3)c(F)c2)C(=O)O1` [Linezolid], the “first-order primary biodegradation rate constant k” value is, setting by setting: under setting [7], 0.0119; under setting [1], 0.0934; under setting [2], 0.0124; under setting [8], 0.285; under setting [3], 0.00542; under setting [4], 0.308. Moreover, the “first-order primary biodegradation rate constant k” value runs as follows: under setting [5], 0.262; under setting [9], 0.0257; under setting [12], 0.0212; under setting [10], 0.0693; under setting [13], 0.0127; under setting [14], 0.0142. The “first-order primary biodegradation rate constant k” value amounted to 0.0268 under setting [6] and 0.103 under setting [11].

For the compound `Cc1cc(C)nc(NS(=O)(=O)c2ccc(N)cc2)n1` [Sulfamethazine], the “first-order primary biodegradation rate constant k” value runs as follows: under setting [7], 0.11; under setting [1], 0.365; under setting [8], 0.0988; under setting [3], 0.0667; under setting [4], 0.729; under setting [5], 0.357. The “first-order primary biodegradation rate constant k” value by setting is: under setting [10], 0.9; under setting [11], 0.0819.

As to `OC(Cn1cncn1)(Cn1cncn1)c1ccc(F)cc1F` [Fluconazole], the “first-order primary biodegradation rate constant k” value was 0.024 under setting [7]; 0.00573 under setting [1]; 0.311 under setting [3]; 0.0588 under setting [5]; 0.00361 under setting [6].

Regarding `CC(C)NCC(O)COc1ccc(CC(N)=O)cc1` (centres undefined) [Atenolol], the “first-order primary biodegradation rate constant k” value runs as follows: under setting [7], 0.299; under setting [1], 0.901; under setting [2], 0.3; under setting [8], 0.39; under setting [3], 0.342; under setting [4], 0.147. Besides, the “first-order primary biodegradation rate constant k” value is, setting by setting: under setting [5], 0.665; under setting [9], 2.88; under setting [15], 0.0637; under setting [10], 0.568; under setting [13], 0.114; under setting [14], 0.395. Besides, the “first-order primary biodegradation rate constant k” value by setting is: under setting [6], 0.508; under setting [11], 0.447.

On to `CCNc1nc(NC(C)(C)C)nc(SC)n1` [Terbutryn], for which the “first-order primary biodegradation rate constant k” value is, setting by setting: under setting [1], 0.0714; under setting [8], 0.0617; under setting [3], 0.247; under setting [10], 0.134; under setting [6], 0.116; under setting [11], 0.068.

With `C=CCOc1ccccc1OCC(O)CNC(C)C` (centres undefined) [Oxprenolol], the “first-order primary biodegradation rate constant k” value is, setting by setting: under setting [7], 0.0433; under setting [1], 1.9; under setting [2], 0.0369; under setting [3], 0.0189; under setting [4], 0.111; under setting [5], 0.756. Also, the “first-order primary biodegradation rate constant k” value is 0.107 under setting [9]; 0.426 under setting [15]; 0.142 under setting [10]; 0.0127 under setting [13]; 0.0926 under setting [14]; 0.0534 under setting [6]. Under setting [11], the “first-order primary biodegradation rate constant k” value stood at 0.0473.

With `CC(C)N(C(=O)COc1nnc(C(F)(F)F)s1)c1ccc(F)cc1` [Flufenacet], the “first-order primary biodegradation rate constant k” value under setting [7] came to 0.0427; the “first-order primary biodegradation rate constant k” value under setting [1] turned out to be 0.151; the “first-order primary biodegradation rate constant k” value under setting [8] is 0.0323; the “first-order primary biodegradation rate constant k” value under setting [4] stood at 0.0751; the “first-order primary biodegradation rate constant k” value under setting [9] was found to be 0.0399; the “first-order primary biodegradation rate constant k” value under setting [12] worked out at 0.0442. For the same compound, the “first-order primary biodegradation rate constant k” value by setting is: under setting [10], 0.0865; under setting [6], 0.0707; under setting [11], 0.105.

Regarding `NS(=O)(=O)c1cc(C(=O)O)c(NCc2ccco2)cc1Cl` [Furosemide], the “first-order primary biodegradation rate constant k” value turned out to be 0.0829 under setting [7]; 0.171 under setting [1]; 0.0275 under setting [2]; 0.168 under setting [8]; 0.0968 under setting [4]; 0.114 under setting [5]. For the same compound, the “first-order primary biodegradation rate constant k” value under setting [9] is 0.359; the “first-order primary biodegradation rate constant k” value under setting [12] worked out at 0.149; the “first-order primary biodegradation rate constant k” value under setting [15] came out at 0.0149; the “first-order primary biodegradation rate constant k” value under setting [10] came to 0.229; the “first-order primary biodegradation rate constant k” value under setting [13] turned out to be 0.0405; the “first-order primary biodegradation rate constant k” value under setting [14] amounted to 0.336. For the same compound, the “first-order primary biodegradation rate constant k” value turned out to be 0.155 under setting [6] and 0.0826 under setting [11].

With `Cc1ccc(C(C)NC(=O)[C@@H](NC(=O)OC(C)C)C(C)C)cc1` (some centres undefined) [Iprovalicarb], the “first-order primary biodegradation rate constant k” value reads like this: under setting [7], 0.251; under setting [1], 0.275; under setting [2], 0.0361; under setting [8], 0.258; under setting [3], 0.16; under setting [4], 0.138. Moreover, the “first-order primary biodegradation rate constant k” value reads like this: under setting [5], 0.096; under setting [9], 0.211; under setting [12], 0.115; under setting [10], 0.203; under setting [13], 0.0585; under setting [14], 0.123. In addition, the “first-order primary biodegradation rate constant k” value reads like this: under setting [6], 0.167; under setting [11], 0.146.

The values are drawn from the supplement of paper PMC11562712.
